Tests used:
Format in all cases: functional
[1] = test system: Human immunodeficiency virus 1; experiment: Antiviral activity against HIV1 harboring E57A mutant regulatory protein rev isolated from patient with viral infection assessed as CD4 cell count after 48 weeks (reference value: 176/ul)
[2] = test system: Human immunodeficiency virus 1; experiment: Antiviral activity against HIV1 harboring wild type regulatory protein rev isolated from patient with viral infection assessed as change in CD4 cell count after 48 weeks relative to control
[3] = test system: Human immunodeficiency virus 1; experiment: Antiviral activity against HIV1 harboring E57A mutant regulatory protein rev isolated from patient with viral infection assessed as change in CD4 cell count after 48 weeks relative to control
[4] = test system: Human immunodeficiency virus 1; experiment: Antiviral activity against HIV1 harboring E57A mutant regulatory protein rev isolated from patient with viral infection assessed as viral RNA count after 48 weeks (reference value: 4.9/ml)
[5] = test system: Human immunodeficiency virus 1; experiment: Antiviral activity against HIV1 harboring wild type regulatory protein rev isolated from patient with viral infection assessed as CD4 cell count after 48 weeks (reference value: 146/ul)
[6] = test system: Human immunodeficiency virus 1; experiment: Antiviral activity against HIV1 harboring wild type regulatory protein rev isolated from patient with viral infection assessed as change in viral RNA count after 48 weeks relative to control
[7] = test system: Human immunodeficiency virus 1; experiment: Antiviral activity against HIV1 harboring E57A mutant regulatory protein rev isolated from patient with viral infection assessed as change in viral RNA count after 48 weeks relative to control
[8] = test system: Human immunodeficiency virus 1; experiment: Antiviral activity against HIV1 harboring wild type regulatory protein rev isolated from patient with viral infection assessed as viral RNA count after 48 weeks (reference value: 4.9/ml)

enfuvirtide
CD4 count [1]: 104 cells/µL
fold change (FC) [2]: 56
fold change (FC) [3]: -42
Activity [4]: 5.4 log10 copies/mL
CD4 count [5]: 192 cells/µL
fold change (FC) [6]: -0.84
fold change (FC) [7]: 0.93
Activity [8]: 4.4 log10 copies/mL
